Here are results for 13 molecules from patent US9975900B2, “Substituted imidazo[1,2-α]pyrazines for treating spinal muscular atrophy” (Hoffmann-La Roche Inc., priority 2014, dated 2018).

For assay [1], the system named is SMN protein in SMA patient fibroblast cells (GM03813). Briefly: SMN protein assay (HTRF) in cultured cells. The conditions noted are these: Homo sapiens, SMA Type 1 patient fibroblasts, 48 hours; for EC (1.5-fold): 7-point concentration curve, concentration giving 1.5 times SMN protein vs vehicle, read-out: EC1.5x SMN protein (EC1.5x concentration for SMN protein expression); for maximal fold induction: fold increase relative to vehicle control, read-out: Max. fold increase of SMN protein. The class given is cell-based. As for the experimental part: The SMN HTRF (homogeneous time resolved fluorescence) assay is used to quantify the level of SMN protein in SMA patient fibroblast cells treated with test compounds. Materials used and respective sources are listed below in Table 4.
Cells are thawed and cultured in DMEM-10% FBS for 72 hours. Cells are trypsinized, counted and re-suspended to a concentration of 25,000 cells/mL in DMEM-10% FBS. The cell suspensions are plated at 5,000 cells per well in a 96 well microtiter plate and incubated for 3 to 5 hours. Test compounds are serially diluted 3.16-fold in 100% DMSO to generate a 7-point concentration curve. 1 μL of test compound solution is transferred to cell-containing wells and cells are incubated for 48 hours in a cell culture incubator (37° C., 5% CO2, 100% relative humidity). Triplicate samples are set up for each test compound concentration. After 48 hours, the supernatant is removed from the wells and 25 μL of the RIPA lysis buffer, containing protease inhibitors, is added to the wells and incubated with shaking at room temperature for 1 hour. 25 μL of the diluent is added and then 35 μL of the resulting lysate is transferred to a 384-well plate, where each well contains 5 μL of the antibody solution (1:100 dilution of anti-SMN d2 and anti-SMN cryptate in SMN reconstitution buffer). The plate is centrifuged for 1 minute to bring the solution to the bottom of the wells, then incubated overnight at room temperature. Fluorescence for each well of the plate at 665 nm and 620 nm is measured on an EnVision multilabel plate reader (Perkin-Elmer).
The normalized fluorescence signal is calculated for each sample, Blank and vehicle control well by dividing the signal at 665 nm by the signal at 620 nm. Normalizing the signal accounts for possible fluorescence quenching due to the matrix effect of the lysate. The ΔF value (a measurement of SMN protein abundance as a percent value) for each sample well is calculated by subtracting the normalized average fluorescence for the Blank control wells from the normalized fluorescence for each sample well, then dividing this difference by the normalized average fluorescence for the Blank control wells and multiplying the resulting value by 100. The ΔF value for each sample well represents the SMN protein abundance from test compound-treated samples. The ΔF value for each sample well is divided by the ΔF value for the vehicle control wells to calculate the fold increase in SMN protein abundance relative to the vehicle control. Table 5 provides EC1.5× concentrations for SMN protein expression that was obtained from the 7-point concentration data generated according to the above procedure for particular compounds of the present invention.
Table 6 provides the maximum fold increase of SMN protein that was obtained from the 7-point concentration data generated according to the above procedure for particular compounds of the present invention
Background: Time-resolved FRET reads energy transfer from a long-lived donor to a nearby acceptor.

The test system of assay [2] is full length SMN2 minigene mRNA (HEK293H cells stably transfected with the SMN2-A minigene construct). Briefly: RT-qPCR assay for SMN2 minigene pre-mRNA splicing in cultured cells. It is filed as cell-based. The settings on record: Homo sapiens, HEK293-H, 24 hours, 7-point concentration curve, concentration giving 1.5-fold FL SMN2mini mRNA vs vehicle, read-out: EC1.5x minigene (EC1.5x concentration for production of full length SMN2 minigene mRNA). As for the experimental part: The reverse transcription-quantitative PCR-based (RT-qPCR) assay is used to quantify the level of the full length SMN2 minigene (referred to herein by the term “FL SMN2mini”) mRNA containing SMN2 exon 7 in a HEK293H cell line stably transfected with said minigene and treated with a test compound. Materials used and respective sources are listed below in Table 1.
The SMN2-A minigene construct was prepared as described in International Patent Application WO2009/151546A1 page 145 paragraph [00400] to page 147 paragraph [00412] (incl. FIG. 1 and FIG. 3 therein).
HEK293H cells stably transfected with the SMN2-A minigene construct (10,000 cells/well) are seeded in 200 μL of cell culture medium (DMEM plus 10% FBS, with 200 μg/mL hygromycin) in 96-well flat-bottom plates and the plate is immediately swirled to ensure proper dispersal of cells and the formation of an even monolayer of cells. Cells are allowed to attach for 6 hours. Test compounds are serially diluted 3.16-fold in 100% DMSO to generate a 7-point concentration curve. A solution of test compound (1 μL, 200× in DMSO) is added to each cell-containing well and the plate is incubated for 24 hours in a cell culture incubator (37° C., 5% CO2, 100% relative humidity). 2 replicates are prepared for each test compound concentration. The cells are then lysed in the Cells-To-Ct lysis buffer and the lysate is stored at −80° C.
Full length SMN2-A minigene and GAPDH mRNA are quantified using the primers and probes referenced in Table 2. Primer SMN Forward A (SEQ ID NO.1) hybridizes to a nucleotide sequence in exon 7 (nucleotide 22 to nucleotide 40), primer SMN Reverse A (SEQ ID NO.2) hybridizes to a nucleotide sequence in the coding sequence of Firefly luciferase, SMN Probe A (SEQ ID NO.3) hybridizes to a nucleotide sequence in exon 7 (nucleotide 50 to nucleotide 54) and exon 8 (nucleotide 1 to nucleotide 21). The combination of these three oligonucleotides detects only SMN1 or SMN2 minigenes (RT-qPCR) and will not detect endogenous SMN1 or SMN2 genes.
The SMN forward and reverse primers are used at final concentrations of 0.4 μM. The SMN probe is used at a final concentration of 0.15 μM. The GAPDH primers are used at final concentrations of 0.2 μM and the probe at 0.15 μM.
The SMN2-minigene GAPDH mix (15 μL total volume) is prepared by combining 7.5 of 2×RT-PCR buffer, 0.4 μL of 25×RT-PCR enzyme mix, 0.75 μL of 20× GAPDH primer-probe mix, […] of water, 2 μL of 10-fold diluted cell lysate, 0.06 μL of 100 μM SMN forward primer, 0.06 μL of 100 μM SMN reverse primer, and 0.225 μL of 100 μM SMN probe.
PCR is carried out at the following temperatures for the indicated time: Step 1: 48° C. (15 min); Step 2: 95° C. (10 min); Step 3: 95° C. (15 sec); Step 4: 60° C. (1 min); then repeat Steps 3 and 4 for a total of 40 cycles.
Each reaction mixture contains both SMN2-A minigene and GAPDH primers/probe sets (multiplex design), allowing simultaneous measurement of the levels of two transcripts.
The increase in the abundance of the FL SMN2mini mRNA relative to that in cells treated with vehicle control is determined from real-time PCR data using a modified ΔΔCt method (as described in Livak and Schmittgen, Methods, 2001, 25:402-8). The amplification efficiency E is calculated from the slope of the amplification curve for FL SMN2mini and GAPDH individually. The abundance of FL SMN2mini and GAPDH mRNA are then calculated as (1+E)^−Ct, where Ct is the threshold value for each amplicon. The abundance of FL SMN2mini mRNA is normalized to GAPDH mRNA abundance. The normalized FL SMN2mini mRNA abundance from test compound-treated samples is then divided by normalized FL SMN2mini mRNA abundance from vehicle-treated cells to determine the level of FL SMN2mini mRNA relative to vehicle control. […]
For orientation: In qPCR the cycle at which signal appears reflects the starting amount.

Counter-ions that a name gives are not always drawn.

Turning to `CC[C@@H]1CN(c2ccc(C(=O)Nc3cn4cc(C)nc4c(C4CC4)n3)c(F)c2)CCN1` [Example 36, N-(8-cyclopropyl-2-methylimidazo[1,2-a]pyrazin-6-yl)-4-[(3R)-3-ethylpiperazin-1-yl]-2-fluorobenzamide hydrochloride], in assay [1], the EC (1.5-fold) came to 1.09 µM and the maximal fold induction is 1.53. Further, in assay [2], the EC (1.5-fold) worked out at 0.0534 µM.
For `Cc1cn2cc(NC(=O)c3ccc(N4CCN5CCC[C@H]5C4)cc3F)nc(C3CC3)c2n1` [Example 17, 4-[(8aS)-3,4,6,7,8,8a-hexahydro-1H-pyrrolo[1,2-a]pyrazin-2-yl]-N-(8-cyclopropyl-2-methylimidazo[1,2-a]pyrazin-6-yl)-2-fluorobenzamide], in assay [1], the EC (1.5-fold) came to 1.7 µM and the maximal fold induction amounted to 1.51. Further, the EC (1.5-fold) in assay [2] was 0.0338 µM.
For `Cc1cn2cc(NC(=O)c3ccc(N4CCN5CCC[C@@H]5C4)cc3F)ncc2n1` [Example 7, 4-[(8aR)-3,4,6,7,8,8a-hexahydro-1H-pyrrolo[1,2-a]pyrazin-2-yl]-2-fluoro-N-(2-methylimidazo[1,2-a]pyrazin-6-yl)benzamide], in that order: 0.872 µM, 1.64 and 0.0484 µM.
For `Cc1cn2cc(NC(=O)c3ccc(N4CC[C@H](N5CCCC5)C4)cc3F)nc(C)c2n1` [Example 20, N-(2,8-dimethylimidazo[1,2-a]pyrazin-6-yl)-2-fluoro-4-[(3S)-3-pyrrolidin-1-ylpyrrolidin-1-yl]benzamide], in that order: 0.101 µM, 1.7 and 0.023 µM.
Regarding `CCOc1cc(N2CCN3CCC[C@H]3C2)ccc1C(=O)Nc1cn2cc(C)nc2c(C)n1` [Example 12, 4-[(8aS)-3,4,6,7,8,8a-hexahydro-1H-pyrrolo[1,2-a]pyrazin-2-yl]-N-(2,8-dimethylimidazo[1,2-a]pyrazin-6-yl)-2-ethoxybenzamide], in assay [1], the EC (1.5-fold) came to 1.73 µM and the maximal fold induction came out at 1.56. Besides, the EC (1.5-fold) in assay [2] came out at 0.145 µM.
Take `Cc1cn2cc(NC(=O)c3ccc(N4CCNC(C(C)C)C4)cc3F)ncc2n1` (stereo not drawn) [Example 45, 2-fluoro-N-(2-methylimidazo[1,2-a]pyrazin-6-yl)-4-(3-propan-2-ylpiperazin-1-yl)benzamide hydrochloride]: the EC (1.5-fold) stood at 0.264 µM in assay [1] and 0.106 µM in assay [2]. Further, the maximal fold induction in assay [1] turned out to be 1.76.
For `CCOc1cc(N2CCN[C@H](C)C2)ccc1C(=O)Nc1cn2cc(C)nc2c(C)n1` [Example 15, N-(2,8-dimethylimidazo[1,2-a]pyrazin-6-yl)-2-ethoxy-4-[(3R)-3-methylpiperazin-1-yl]benzamide], in assay [1], the EC (1.5-fold) amounted to 0.303 µM and the maximal fold induction worked out at 1.72. For the same molecule, the EC (1.5-fold) in assay [2] was 0.038 µM.
For `Cc1cn2cc(NC(=O)c3ccc(N4CCN[C@H](C)C4)cc3F)nc(C3CC3)c2n1` [Example 23, N-(8-cyclopropyl-2-methylimidazo[1,2-a]pyrazin-6-yl)-2-fluoro-4-[(3R)-3-methylpiperazin-1-yl]benzamide hydrochloride], in that order: 0.0622 µM, 1.72 and 0.0268 µM.
For the molecule `Cc1cn2cc(NC(=O)c3ccc(N4C[C@@H](C)N[C@@H](C)C4)cc3F)ncc2n1` [Example 27, 4-[(3S,5R)-3,5-dimethylpiperazin-1-yl]-2-fluoro-N-(2-methylimidazo[1,2-a]pyrazin-6-yl)benzamide], in assay [1], the EC (1.5-fold) is 1.52 µM and the maximal fold induction turned out to be 1.85. Moreover, in assay [2], the EC (1.5-fold) is 0.0167 µM.
For `Cc1cn2cc(NC(=O)c3ccc(N4CCC(N5CCCC5)CC4)cc3F)nc(C)c2n1` [Example 48, N-(2,8-dimethylimidazo[1,2-a]pyrazin-6-yl)-2-fluoro-4-(4-pyrrolidin-1-ylpiperidin-1-yl)benzamide], in that order: 0.23 µM, 1.65 and 0.0266 µM.
Regarding `CCOc1cc(N2CCC(N3CC(OC)C3)CC2)ccc1C(=O)Nc1cn2cc(C)nc2c(C)n1` [Example 49, N-(2,8-dimethylimidazo[1,2-a]pyrazin-6-yl)-2-ethoxy-4-[4-(3-methoxyazetidin-1-yl)piperidin-1-yl]benzamide], in assay [1], the EC (1.5-fold) was determined as 1.98 µM and the maximal fold induction was determined as 1.51. For the same molecule, the EC (1.5-fold) in assay [2] worked out at 0.223 µM.
Take `CCc1nc(NC(=O)c2ccc(N3CCN[C@H](C)C3)cc2F)cn2cc(C)nc12` [Example 21, N-(8-ethyl-2-methylimidazo[1,2-a]pyrazin-6-yl)-2-fluoro-4-[(3R)-3-methylpiperazin-1-yl]benzamide hydrochloride]: in assay [1], the EC (1.5-fold) is 0.162 µM and the maximal fold induction stood at 1.8. In assay [2], the EC (1.5-fold) was found to be 0.0204 µM.
The matching figures for `Cc1cn2cc(NC(=O)c3ccc(N4CCNCC4)cc3F)ncc2n1` [Example 1, 2-fluoro-N-(2-methylimidazo[1,2-a]pyrazin-6-yl)-4-piperazin-1-ylbenzamide hydrochloride]: 0.087 µM, 1.9 and 0.0374 µM.
